Read-outs that look alike come from different tables or passages of the source.
Columns and labels:
rHuPH20 [1] = target: T1, rHuPH20 (Homo sapiens, UniProt P38567); assay: Determination of hyaluronidase activity of rHuPH20, turbidimetric assay (Example 2, variant not specified); type: biochemical; settings: for Effect on rHuPH20 enzymatic activity: stabilizer screening in rHuPH20/insulin formulation, semi-quantitative in comparison with NaCl, samples incubated at 30° C. for about one week
T1 construct: made in house; host or cells: CHO cells (DG44 CHO, HZ24 plasmid, clone 2B2)
T1 sequence (P38567 36-482): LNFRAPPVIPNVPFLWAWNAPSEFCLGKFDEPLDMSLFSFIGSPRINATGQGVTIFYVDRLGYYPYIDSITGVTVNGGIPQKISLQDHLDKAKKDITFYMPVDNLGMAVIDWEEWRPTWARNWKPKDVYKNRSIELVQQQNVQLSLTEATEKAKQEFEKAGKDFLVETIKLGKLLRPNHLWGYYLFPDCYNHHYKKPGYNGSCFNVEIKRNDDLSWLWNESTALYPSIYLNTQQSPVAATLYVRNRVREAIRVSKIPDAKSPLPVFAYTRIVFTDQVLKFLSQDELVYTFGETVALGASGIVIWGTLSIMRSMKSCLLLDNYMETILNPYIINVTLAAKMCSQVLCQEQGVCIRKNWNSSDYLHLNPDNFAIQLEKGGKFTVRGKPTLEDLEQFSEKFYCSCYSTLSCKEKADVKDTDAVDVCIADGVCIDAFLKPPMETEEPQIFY

[2] = Non-denaturing SEC: percent main peak / aggregates of insulin and rHuPH20; type: physicochemical
Protocol: Reference samples were stored in HPLC vials at 10° C. prior to use.
Samples were stored in HPLC vials at 10° C. prior to use, for up to 3 days.
0.5× Phosphate Buffered Saline (PBS) solution was prepared by diluting 10×PBS with HPLC grade water.
Insulin percent purity was expressed as percentage of the insulin main peak versus the total insulin peaks. The target specification is less than 2% high molecular weight protein, i.e., insulin aggregates.
SEC was performed using the following conditions: 1× Phosphate Buffered Saline (PBS), a Toso BioScience G2000 SWXL column, and a flow rate set at 1 mL/min. Data were collected as described above and means were reported and entered into the design table following the sample sequence provided by the DOE software.

[3] = RP-HPLC: insulin apparent solubility / percent recovery
Protocol: Apparent solubility was measured as the percent insulin recovery as compared to the initial formulations/conditions.
Samples were prepared by withdrawing 100 μL from each vial at every time point and centrifuging prior to loading. Samples were stored in an autosampler at 4° C. prior to use, and were considered stable for 3 days after preparation. All samples were tested in duplicate.
For insulin, 20 μL was injected for each HPLC run.
To determine the apparent solubility, the peak area of insulin/insulin analog main peak and desamido peak were integrated and combined together to calculate the percentage relative to the standards. […] The data were processed using Design-Expert® 7.0 (StatEase) and the “historical data” feature. Insulin percent purity was expressed as the percent of main insulin versus all insulin species.

rHuPH20 [4] = target: T1, rHuPH20; assay: RP-HPLC: rHuPH20 oxidation peaks (ox-1, ox-2); type: physicochemical; settings: 0.02% surfactant, 30° C., 72 hours
From the text: The stability of hyaluronan degrading enzymes in a composition, such as in the co-formulations provided herein, also can be assessed using other methods and assays known in the art. […] Percent recovery is the relative percentage of the hyaluronidase in the co-formulation over time and at various storage conditions, as compared to a reference sample. […] An increase in particle size and a decrease in the melting temperature indicates denaturation and subsequent aggregation of the hyaluronidase. […] Other methods known to one of skill in the art that can be used to determine the stability of the hyaluronidase in the co-formulations provided herein, include polyacrylamide gel electrophoresis (PAGE), immunoblotting, nuclear magnetic resonance (NMR) spectroscopy, mass spectrometry, circular dichroism (CD) and dye-based fluorescence assays.
The formulations varied in the surfactant and surfactant concentration and the buffer (either histidine or phosphate).
Methionine oxidation can be prevented by addition of free methionine as a scavenger to react with potential oxidative compounds.

[5] = t = 0, 100 μg/mL rHuPH20, pH 7.3, 140 mM NaCl, 0.01% polysorbate 80, preservative levels of Table 21, in U/mL
[6] = 35° C., Table 22 concentrations

OC[C@H]1O[C@@](CO)(O[C@H]2O[C@H](CO)[C@@H](O)[C@H](O)[C@H]2O)[C@@H](O)[C@@H]1O [Sucrose]
Effect on rHuPH20 enzymatic activity (rHuPH20 [1]): No effect

C[CH2][Hg][S]c1ccccc1C(=O)[O-].[Na+] [Thimerosal]
rHuPH20 activity (rHuPH20 [1]; 24 hours, 25° C., in U/mL): 8990
rHuPH20 activity (rHuPH20 [1]; 5 days, 25° C., in U/mL): 8960
rHuPH20 activity (rHuPH20 [1]; 6 days, 35° C., in U/mL): 10070
rHuPH20 activity (rHuPH20 [1]; [5]): 10,290
% Main rHuPH20 peak by non-denaturing SEC ([2]; 4° C., 1 day): 98.59%
% Main rHuPH20 peak by non-denaturing SEC ([2]; 35° C., 1 day): 98.31%

OC[C@H]1O[C@H](O[C@H]2O[C@H](CO)[C@@H](O)[C@H](O)[C@H]2O)[C@H](O)[C@@H](O)[C@@H]1O [Trehalose]
Effect on rHuPH20 enzymatic activity (rHuPH20 [1]): No effect

C[N+](C)(C)[O-] [Trimethylamine oxide (TMAO)]
Effect on rHuPH20 enzymatic activity (rHuPH20 [1]): No effect
Effect on insulin solubility ([3]; stabilizer screening in rHuPH20/insulin formulation, semi-quantitative in comparison with NaCl, RP-HPLC, samples stored at 5° C.): No effect

OCC(O)CO [glycerol]
Effect on rHuPH20 enzymatic activity (rHuPH20 [1]): No effect
Effect on insulin solubility [3]: No/slight effect;

Cc1cccc(O)c1 [m-cresol]
rHuPH20 activity (rHuPH20 [1]; 48 hours, 4° C., preservative levels of Table 22, in U/mL): 10,950
rHuPH20 activity (rHuPH20 [1]; 48 hours, 35° C., preservative levels of Table 22): <LOQ
Enzymatic Activity of rHuPH20 (rHuPH20 [1]; preservative 0.05%, 1 Month, 25° C., insulin/rHuPH20 formulation pH 7.1, 140 mM NaCl): 2103 U/mL
Enzymatic Activity of rHuPH20 (rHuPH20 [1]; preservative 0.05%, 1 Week, 35° C.): 2019 U/mL
Enzymatic Activity of rHuPH20 (rHuPH20 [1]; preservative 0.05%, 2 Weeks, 35° C.): 1955 U/mL
Enzymatic Activity of rHuPH20 (rHuPH20 [1]; preservative 0.1%, 1 Month, 25° C.): 2188 U/mL
Enzymatic Activity of rHuPH20 (rHuPH20 [1]; preservative 0.1%, 1 Week, 35° C.): 2147 U/mL
Enzymatic Activity of rHuPH20 (rHuPH20 [1]; preservative 0.1%, 2 Weeks, 35° C.): 2069 U/mL
Enzymatic Activity of rHuPH20 (rHuPH20 [1]; preservative 0.2%, 1 Month, 25° C.): 2013 U/mL
Enzymatic Activity of rHuPH20 (rHuPH20 [1]; preservative 0.2%, 1 Week, 35° C.): 466 U/mL
Enzymatic Activity of rHuPH20 (rHuPH20 [1]; preservative 0.2%, 2 Weeks, 35° C.): 185 U/mL
Enzymatic Activity of rHuPH20 (rHuPH20 [1]; preservative 0.4%, 1 Month, 25° C.): <LOD
Enzymatic Activity of rHuPH20 (rHuPH20 [1]; preservative 0.4%, 1 Week, 35° C.): <LOD
Enzymatic Activity of rHuPH20 (rHuPH20 [1]; preservative 0.4%, 2 Weeks, 35° C.): <LOD
% Main rHuPH20 peak by non-denaturing SEC ([2]; 4° C., Table 22 concentrations): 100.00%
% Main rHuPH20 peak by non-denaturing SEC [2, 6]: 0.834%

COC(=O)c1ccc(O)cc1 [methylparaben]
Enzymatic Activity of rHuPH20 (rHuPH20 [1]; preservative 0.3%, 1 Week, 35° C.): 730 U/mL
% Main rHuPH20 peak by non-denaturing SEC ([2]; 4° C., Table 22 concentrations): 100.00%
% Main rHuPH20 peak by non-denaturing SEC [2, 6]: 96.91%

OC[C@@H](O)[C@@H](O)[C@H](O)[C@@H](O)CO [sorbitol]
Effect on rHuPH20 enzymatic activity (rHuPH20 [1]): No effect

Benzalkonium Chloride
rHuPH20 activity (rHuPH20 [1]; 24 hours, 25° C., in U/mL): 10750
rHuPH20 activity (rHuPH20 [1]; 5 days, 25° C., in U/mL): 2710
rHuPH20 activity (rHuPH20 [1]; 6 days, 35° C.): <LOQ
rHuPH20 activity (rHuPH20 [1]; [5]): 11,740
% Main rHuPH20 peak by non-denaturing SEC ([2]; 4° C., 1 day): 99.64%
% Main rHuPH20 peak by non-denaturing SEC ([2]; 35° C., 1 day): <LOD

Polysorbate 20
% of Oxidation Peak 1 of rHuPH20 (rHuPH20 [4]; Methionine 0 mM): 4.01%
% of Oxidation Peak 1 of rHuPH20 (rHuPH20 [4]; Methionine 2 mM): 3.43%
% of Oxidation Peak 1 of rHuPH20 (rHuPH20 [4]; Methionine 10 mM): 3.37%
% of Oxidation Peak 1 of rHuPH20 (rHuPH20 [4]; Methionine 50 mM): 3.38%

Polysorbate 80
% of Oxidation Peak 1 of rHuPH20 (rHuPH20 [4]; Methionine 0 mM): 4.01%
% of Oxidation Peak 1 of rHuPH20 (rHuPH20 [4]; Methionine 2 mM): 3.50%
% of Oxidation Peak 1 of rHuPH20 (rHuPH20 [4]; Methionine 10 mM): 3.44%
% of Oxidation Peak 1 of rHuPH20 (rHuPH20 [4]; Methionine 50 mM): 3.34%

hyaluronic acid [HA]
% of the original activity retained (rHuPH20 [1]; 1 week at 30° C., pH 7.1, 1 mg/mL HA, 75 mM NaCl): 57%
% of the original rHuPH20 remained (rHuPH20 [1]; 1 week at 30° C., pH 7.1, 5.5 mg/mL HA, 100 mM NaCl): 68%
% of the original activity retained (rHuPH20 [1]; 1 week at 30° C., pH 7.1, 10 mg/mL HA): 85%
rHuPH20 activity (rHuPH20 [1]; 1 week at 30° C., pH 7.1, 10 mg/mL HA, from 600 U/mL): 510 U/mL
rHuPH20 activity (rHuPH20 [1]; rHuPH20/insulin co-formulation, 1 week at 30° C., pH 7.1, 1 mg/mL HA, 75 mM NaCl, from 600 U/mL): 341 U/mL
effect on rHuPH20 stability in comparison with NaCl (rHuPH20 [1]; stabilizer screening, 30° C. about one week, […] m-cresol, 0.2% phenol): stabilized rHuPH20 more than NaCl

Reference: US20130011378A1, “Stable formulations of a hyaluronan-degrading enzyme” (priority 2011, published 2013)
